Assay results: US20200255807A1, “IN VITRO PROPAGATION OF PRIMARY CANCER CELLS” (University of Cape Town, priority 2017, published 2020)

Tested on: primary breast cancer cells
Assay: Isolation of primary breast cancer cells from biopsy samples by digestion with collagenase II plus an additional enzyme (cell yield and viability)
Assay type: cell-based, human
Settings: for Mean fold increase in cell number (collagenase II = 1): additional enzyme used in conjunction with 5 μg/ml collagenase II, 45 min at 37° C., compared to collagenase II alone
Protocol: A fresh primary breast cancer tumour biopsy sample (10-200 mg of tissue) was placed in 5 ml Hanks Balanced Salts (HBSS; Lonza, Germany; pH=7.5) on ice and it was transported immediately to the laboratory. The biopsy sample was weighed and then cut into 1 mm by 1 mm pieces using a scalpel in a BSL2 cabinet. The cut pieces were placed in 1 ml HBSS containing 5 μg/ml collagenase II (Ambion, USA) with or without 5 U/ml hyaluronidase, dispase II or papain (10 mg/ml) and the tissue was digested by incubation at 37° C. with rotation for 45 min. After the incubation time, a […] cell strainer (Becton Dickinson, USA) was placed into a 50 ml tube. The undigested material was pipetted up and down 10 times and then placed onto the cell strainer. The cell strainer was washed with 10 ml of HBSS and the cells were pelleted at 500×g for 5 min. The pelleted cells were then washed with an additional 10 ml of HBSS.
The pelleted cells were re-suspended in DMEM/F12 containing 10% human A/B serum (Western Province Blood Transfusion Services), 100 IU penicillin/streptomycin (Lonza, Germany), 0.1 mM sodium pyruvate (Lonza, Germany), […] (Sigma, Germany), […] (Sigma, Germany), 5 mM ethanolamine (Sigma, Germany), 5 μg/ml selenium (Sigma, Germany) and 10 nM estradiol (Sigma, Germany). The cells were then plated into a multi well plate or dish, which was dependent on the cell number. The breast cancer cells were incubated at 37° C. for 2 days and the medium was replaced with fresh medium without 10 nM estradiol, but with 100 nM cortisol (Sigma, Germany). The medium was replaced every 2 days with fresh medium containing half the concentration of cortisol used on the previous day. When the cells were confluent they were split using a standard procedure (trypsin) into a larger culture vessel.

For Hyaluronidase, the “Mean fold increase in cell number (collagenase II = 1)” value (from here on “Mean fold increase in cell number”) (breast biopsy samples) was 2.7 (SD = 1.2-4.5) fold, the “Mean fold increase in cell number” value (breast biopsy samples, listed as hyaluronidase) was 2.7 fold and the Mean cell viability (additional enzyme used in conjunction with collagenase II for cell isolation, breast biopsy samples (Table 1)) was 69%. For the same molecule, the “mean viability of the cells” value (enzyme used in conjunction with collagenase II, breast biopsy samples) was 69%.

B1: Papain: protease enzyme (10 mg/ml) added with collagenase II to the isolation buffer for digesting tumour biopsy tissue (protein, UniProt P00784 134-345, looked up)
Papain: IPEYVDWRQKGAVTPVKNQGSCGSCWAFSAVVTIEGIIKIRTGNLNEYSEQELLDCDRRSYGCNGGYPWSALQLVAQYGIHYRNTYPYEGVQRYCRSREKGPYAAKTDGVRQVQPYNEGALLYSIANQPVSVVLEAAGKDFQLYRGGIFVGPCGNKVDHAVAAVGYGPNYILIKNSWGTGWGENGYIRIKRGTGNSYGVCGLYTSSFYPVKN
For B1, the “Mean fold increase in cell number” value (breast biopsy samples) was 0.7 (SD = 0.4-0.9) fold and the “Mean fold increase in cell number” value (breast biopsy samples, listed as papain) was 0.7 fold.
